For series [1], the target named is T1, rat calcitonin (a) receptor (Rattus norvegicus, UniProt P32214).
T1 construct: expressed in transfected cells; host or cells: BHK tk'ts 13
T1 sequence (P32214 25-479 isoform P32214-2 limits assumed): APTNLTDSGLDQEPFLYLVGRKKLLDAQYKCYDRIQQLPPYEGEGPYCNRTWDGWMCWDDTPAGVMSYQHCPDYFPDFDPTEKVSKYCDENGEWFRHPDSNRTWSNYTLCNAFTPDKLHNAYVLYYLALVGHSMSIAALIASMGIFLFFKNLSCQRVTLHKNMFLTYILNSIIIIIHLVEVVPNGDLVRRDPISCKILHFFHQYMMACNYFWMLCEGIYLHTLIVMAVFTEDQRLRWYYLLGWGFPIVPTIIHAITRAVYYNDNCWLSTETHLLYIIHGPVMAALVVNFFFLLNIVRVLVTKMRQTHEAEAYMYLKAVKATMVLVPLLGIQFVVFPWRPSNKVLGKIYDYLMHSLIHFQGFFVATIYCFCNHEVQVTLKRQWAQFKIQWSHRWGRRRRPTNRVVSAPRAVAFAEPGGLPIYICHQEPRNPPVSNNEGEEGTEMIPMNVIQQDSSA
Briefly: Assay (II)b functional cAMP FlashPlate assay, rat calcitonin receptor. The format is cell-based. The note with it: Table 11; read-out: CTa receptor rat EC50. A digest of the protocol:
(§1)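 BHK tk'ts 13 cells transiently transfected with rat calcitonin(a) receptor, alone or with rat RAMP3 (amylin 3(a)), were stimulated 24 hours later with sample for 30 min in buffer containing IBMX. cAMP measured by competitive radioactive FlashPlate assay, scintillation read after 3 h detection incubation.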

Series [2] is described as follows: Assay (III) ThT fibrillation assay for physical stability. The format is physicochemical. Summed up:
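Freshly prepared formulations, pH-adjusted, with 1 μM ThT; four or eight replicates incubated at 37 °C under 960 rpm orbital shaking. Fluorescence (ex 444/em 485 nm) read every 20 min; […]. Peptide concentration measured by RP-HPLC before and after the run.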

Series [3] addresses T2, rat amylin 3(a) receptor (rat calcitonin(a) receptor + rat RAMP3) (Rattus norvegicus, UniProt P32214+Q9JJ73).
T2 construct: expressed in transfected cells; host or cells: BHK tk'ts 13
T2 sequence (P32214 25-479 isoform P32214-2 limits assumed): T1 sequence (P32214 25-479 isoform P32214-2 limits assumed)
T2 sequence (Q9JJ73 23-147 partner): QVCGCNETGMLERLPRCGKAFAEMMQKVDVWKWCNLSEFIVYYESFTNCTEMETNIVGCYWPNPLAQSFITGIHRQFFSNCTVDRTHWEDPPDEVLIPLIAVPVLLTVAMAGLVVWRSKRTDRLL
Briefly: Assay (II)b functional cAMP FlashPlate assay, rat amylin receptor. The series is classed as cell-based. The note with it: Table 11. Summed up: as §1

Starred links: 1 amine or outer side, 2 acyl side, 3 side chain; linkers in the order of their positions; H or OH if unused. Positions of bridges follow the written chain, without caps; N, C: chain ends. Residues, ends and D or L forms follow the SMILES beside them. *: point of attachment. C20 diacid = O=C(O)CCCCCCCCCCCCCCCCCCC(=O)*; γGlu = O=C(O)[C@H](CCC(=O)[*:2])N[*:1]

In general, EC50 refers to the concentration needed to bring the measured effect to its halfway point. With `CC[C@H](C)[C@H](NC(=O)[C@@H]1CCCN1C(=O)CNC(=O)[C@H](Cc1ccccc1)NC(=O)[C@H](CC(N)=O)NC(=O)[C@H](CC(N)=O)NC(=O)[C@H](CO)NC(=O)[C@H](CO)NC(=O)[C@H](Cc1c[nH]cn1)NC(=O)[C@H](Cc1c[nH]cn1)NC(=O)[C@H](CC(C)C)NC(=O)[C@H](Cc1ccccc1)NC(=O)[C@H](CCC(=O)O)NC(=O)[C@H](C)NC(=O)[C@H](CC(C)C)NC(=O)[C@H](CCCNC(=N)N)NC(=O)[C@H](CCC(N)=O)NC(=O)[C@@H](NC(=O)[C@H](C)NC(=O)[C@@H]1CSSC[C@H](NC(=O)[C@H](Cc2c[nH]cn2)NC(=O)[C@H](Cc2c[nH]cn2)NC(=O)[C@H](Cc2c[nH]cn2)NC(=O)CC[C@H](NC(=O)CCCCCCCCCCCCCCCCCCC(=O)O)C(=O)O)C(=O)N[C@@H](CC(N)=O)C(=O)N[C@@H]([C@@H](C)O)C(=O)N[C@@H](C)C(=O)N[C@@H]([C@@H](C)O)C(=O)N1)[C@@H](C)O)C(=O)N[C@@H](CC(C)C)C(=O)N1CCC[C@H]1C(=O)N1CCC[C@H]1C(=O)N[C@H](C(=O)N[C@@H](CC(N)=O)C(=O)N[C@H](C(=O)NCC(=O)N[C@@H](CO)C(=O)N[C@@H](Cc1c[nH]cn1)C(=O)N[C@H](C(=O)N[C@@H](Cc1ccc(O)cc1)C(N)=O)[C@@H](C)O)C(C)C)[C@@H](C)O` [Example 31, N-alpha-[(S)-4-Carboxy-4-(19-carboxynonadecanoylamino)butyryl]-His-His-[His1,Glu14,His17,His35]-pramlintide] ({C20 diacid-γGlu}-HHHCNTATCATQRLAEFLHHSSNNFGPILPPTNVGSHTY-NH2; disulfide 4-9 (inferred); C-terminus assumed), the EC50 in series [1] came out at 1.31 nM; in series [3] it was 0.2 nM. In series [2] (ThT fibrillation assay), the “ThT pH 4.0 lag time” value is recorded as over 45 h. Besides, the “ThT pH 4.0 lag time (h)” value in series [2] (ThT fibrillation assay) is listed as over 45 h.
For the compound `CC[C@H](C)[C@H](NC(=O)[C@@H]1CCCN1C(=O)CNC(=O)[C@H](Cc1ccccc1)NC(=O)[C@H](CC(N)=O)NC(=O)[C@H](CC(N)=O)NC(=O)[C@H](CO)NC(=O)[C@H](CO)NC(=O)[C@H](Cc1c[nH]cn1)NC(=O)[C@H](Cc1c[nH]cn1)NC(=O)[C@H](CC(C)C)NC(=O)[C@H](Cc1ccccc1)NC(=O)[C@H](CCC(=O)O)NC(=O)[C@H](C)NC(=O)[C@H](CC(C)C)NC(=O)[C@H](CCCNC(=N)N)NC(=O)[C@H](CCC(N)=O)NC(=O)[C@@H](NC(=O)[C@H](C)NC(=O)[C@@H]1CSSC[C@H](NC(=O)[C@H](CCCNC(=N)N)NC(=O)CNC(=O)CC[C@H](NC(=O)CCCCCCCCCCCCCCCCCCC(=O)O)C(=O)O)C(=O)N[C@@H](CC(N)=O)C(=O)N[C@@H]([C@@H](C)O)C(=O)N[C@@H](C)C(=O)N[C@@H]([C@@H](C)O)C(=O)N1)[C@@H](C)O)C(=O)N[C@@H](CC(C)C)C(=O)N1CCC[C@H]1C(=O)N1CCC[C@H]1C(=O)N[C@H](C(=O)N[C@@H](CC(N)=O)C(=O)N[C@H](C(=O)NCC(=O)N[C@@H](CO)C(=O)N[C@@H](CC(N)=O)C(=O)N[C@H](C(=O)N1CCC[C@H]1C(N)=O)[C@@H](C)O)C(C)C)[C@@H](C)O` [Example 101, N-alpha-[(S)-4-Carboxy-4-(19-carboxynonadecanoylamino)butyryl]-Gly-[Arg1,Glu14,His17,Pro37]-pramlintide] ({C20 diacid-γGlu}-GRCNTATCATQRLAEFLHHSSNNFGPILPPTNVGSNTP-NH2; disulfide 3-8 (inferred)), the EC50 in series [1] came to 0.044 nM; in series [3], 0.075 nM. Further, the “ThT pH 4.0 lag time” value in series [2] (Table 8), in series [2] (Table 9) and in series [2] (ThT fibrillation assay) was over 45 h each time. Besides, in series [2] (ThT fibrillation assay), the “ThT pH 4.0 lag time (h)” value was over 45 h.
Turning to `CC[C@H](C)[C@H](NC(=O)[C@@H]1CCCN1C(=O)CNC(=O)[C@H](Cc1ccccc1)NC(=O)[C@H](CC(N)=O)NC(=O)[C@H](CC(N)=O)NC(=O)[C@H](CO)NC(=O)[C@H](CO)NC(=O)[C@H](Cc1c[nH]cn1)NC(=O)[C@H](CCCNC(=N)N)NC(=O)[C@H](CC(C)C)NC(=O)[C@H](Cc1ccccc1)NC(=O)[C@H](CCC(=O)O)NC(=O)[C@H](C)NC(=O)[C@H](CC(C)C)NC(=O)[C@H](CCCNC(=N)N)NC(=O)[C@H](CCC(N)=O)NC(=O)[C@@H](NC(=O)[C@H](C)NC(=O)[C@@H]1CSSC[C@H](NC(=O)[C@H](Cc2c[nH]cn2)NC(=O)CNC(=O)CC[C@H](NC(=O)CCCCCCCCCCCCCCCCCCC(=O)O)C(=O)O)C(=O)N[C@@H](CC(N)=O)C(=O)N[C@@H]([C@@H](C)O)C(=O)N[C@@H](C)C(=O)N[C@@H]([C@@H](C)O)C(=O)N1)[C@@H](C)O)C(=O)N[C@@H](CC(C)C)C(=O)N1CCC[C@H]1C(=O)N1CCC[C@H]1C(=O)N[C@H](C(=O)N[C@@H](CC(N)=O)C(=O)N[C@H](C(=O)NCC(=O)N[C@@H](CO)C(=O)N[C@@H](CC(N)=O)C(=O)N[C@H](C(=O)N1CCC[C@H]1C(N)=O)[C@@H](C)O)C(C)C)[C@@H](C)O` [Example 89, N-alpha-[(S)-4-Carboxy-4-(19-carboxynonadecanoylamino)butyryl]-Gly-[His1,Glu14,Arg17,Pro37]-pramlintide] ({C20 diacid-γGlu}-GHCNTATCATQRLAEFLRHSSNNFGPILPPTNVGSNTP-NH2; disulfide 3-8 (inferred)), the EC50 in series [1] stood at 0.114 nM; in series [3], 0.151 nM. Besides, the “ThT pH 4.0 lag time” value in series [2] (Table 8), in series [2] (Table 9) and in series [2] (ThT fibrillation assay) was over 45 h throughout. For the same compound, the “ThT pH 4.0 lag time (h)” value in series [2] (ThT fibrillation assay) is recorded as over 45 h.
For the compound `CC[C@H](C)[C@H](NC(=O)[C@@H]1CCCN1C(=O)CNC(=O)[C@H](Cc1ccccc1)NC(=O)[C@H](CC(N)=O)NC(=O)[C@H](CC(N)=O)NC(=O)[C@H](CO)NC(=O)[C@H](CO)NC(=O)[C@H](Cc1c[nH]cn1)NC(=O)[C@H](CCCNC(=N)N)NC(=O)[C@H](CC(C)C)NC(=O)[C@H](Cc1ccccc1)NC(=O)[C@H](CCC(=O)O)NC(=O)[C@H](C)NC(=O)[C@H](CC(C)C)NC(=O)[C@H](CCCNC(=N)N)NC(=O)[C@H](CCC(N)=O)NC(=O)[C@@H](NC(=O)[C@H](C)NC(=O)[C@@H]1CSSC[C@H](NC(=O)[C@H](Cc2c[nH]cn2)NC(=O)CC[C@H](NC(=O)CCCCCCCCCCCCCCCCCCC(=O)O)C(=O)O)C(=O)N[C@@H](CC(N)=O)C(=O)N[C@@H]([C@@H](C)O)C(=O)N[C@@H](C)C(=O)N[C@@H]([C@@H](C)O)C(=O)N1)[C@@H](C)O)C(=O)N[C@@H](CC(C)C)C(=O)N1CCC[C@H]1C(=O)N1CCC[C@H]1C(=O)N[C@H](C(=O)N[C@@H](CC(N)=O)C(=O)N[C@H](C(=O)NCC(=O)N[C@@H](CO)C(=O)N[C@@H](CC(N)=O)C(=O)N[C@H](C(=O)N1CCC[C@H]1C(N)=O)[C@@H](C)O)C(C)C)[C@@H](C)O` [Example 90, N-alpha-[(S)-4-Carboxy-4-(19-carboxynonadecanoylamino)butyryl]-[His1,Glu14,Arg17,Pro37]-pramlintide] ({C20 diacid-γGlu}-HCNTATCATQRLAEFLRHSSNNFGPILPPTNVGSNTP-NH2; disulfide 2-7 (inferred); C-terminus assumed), the values for the EC50 in series [1] and in series [3] were 0.128 nM and 0.217 nM, respectively. Moreover, the “ThT pH 4.0 lag time” value in series [2] (Table 8), in series [2] (Table 9) and in series [2] (ThT fibrillation assay) was over 45 h in each case. For the same compound, in series [2] (ThT fibrillation assay), the “ThT pH 4.0 lag time (h)” value is listed as over 45 h.

The values above are taken from patent publication US8722849B2, “Polypeptides” (Novo Nordisk A/S, priority 2011, dated 2014).
